The values that follow come from US12077503B2, “Substituted cyclic amides and their use as herbicides” (FMC CORPORATION, priority 2015, dated 2024).

Holding throughout (experiment): Test G Pre-Emergence Protocol
Holding throughout (assay type): in vivo

Assay [1] has as its system giant foxtail (Setaria faberi). As to conditions: Setaria faberi, pre-emergence, 312 h, evaluated after 13 days; for pest or weed control at 15.625 g/ha: 15.625 g ai/ha; for pest or weed control at 15.625 g/ha / pest or weed control at 250 g/ha: read-out: Foxtail, Giant damage rating (100=total damage to plant; 0=no damage to plant); for pest or weed control at 62.5 g/ha: 62.5 g ai/ha, 100=total damage to plant, 0=no damage to plant, read-out: plant damage rating, Foxtail, Giant; for pest or weed control at 250 g/ha: 250 g ai/ha. Here is the method:
(§1) Seeds of corn (Zea mays), giant foxtail (Setaria faberi), barnyardgrass (Echinochloa crus-galli), ivy-leaved morning glory (Ipomoea hederacea), redroot pigweed (Amaranthus retroflexus) and velvetleaf (Abutilon theophrasti) were sown in standard soil in pots. After cultivation for one day under controlled conditions in a glasshouse (at 24/16° C., day/night; 14 hours light; 65% humidity), the plants were sprayed with an aqueous spray solution derived from the formulation of the technical active ingredient in acetone/water (50:50) solution containing 0.5% Tween 20 (polyoxyethylene sorbitan monolaurate, CAS RN 9005-64-5) to give a final dose of 15.625, 62.5 or 250 g/ha of test compound.
(§2) The test plants were then grown on under controlled conditions in a glasshouse (at 24/16° C., day/night; 14 hours light; 65% humidity) and watered twice daily. After 13 days the test was evaluated (100=total damage to plant; 0=no damage to plant). A dash (-) means no test result.

Assay [2] concerns barnyardgrass (Echinochloa crus-galli). To be noted: Echinochloa crus-galli, pre-emergence, 312 h, evaluated after 13 days; for pest or weed control at 15.625 g/ha: 15.625 g ai/ha, read-out: Barnyard grass damage rating (100=total damage to plant; 0=no damage to plant); for pest or weed control at 62.5 g/ha: 62.5 g ai/ha, 100=total damage to plant, 0=no damage to plant, read-out: plant damage rating, Barnyardgrass; for pest or weed control at 250 g/ha: 250 g ai/ha, read-out: Barnyardgrass damage rating (100=total damage to plant; 0=no damage to plant). Here is the method: as §1, §2

In a further assay the test system is corn (Zea mays). To be noted: Zea mays, pre-emergence, 312 h, evaluated after 13 days; for plant injury at 15.625 g/ha: 15.625 g ai/ha; for plant injury at 15.625 g/ha / plant injury at 250 g/ha: read-out: Corn damage rating (100=total damage to plant; 0=no damage to plant); for plant injury at 62.5 g/ha: 62.5 g ai/ha, 100=total damage to plant, 0=no damage to plant, read-out: plant damage rating, Corn; for plant injury at 250 g/ha: 250 g ai/ha. As for the experimental part:
as §1, §2

The subject of assay [3] is velvetleaf (Abutilon theophrasti). To be noted: Abutilon theophrasti, pre-emergence, 312 h, evaluated after 13 days; for pest or weed control at 15.625 g/ha: 15.625 g ai/ha; for pest or weed control at 15.625 g/ha / pest or weed control at 250 g/ha: read-out: Velvetleaf damage rating (100=total damage to plant; 0=no damage to plant); for pest or weed control at 62.5 g/ha: 62.5 g ai/ha, 100=total damage to plant, 0=no damage to plant, read-out: plant damage rating, Velvetleaf; for pest or weed control at 250 g/ha: 250 g ai/ha. Here is the method: as §1, §2

In assay [4] the test system is redroot pigweed (Amaranthus retroflexus). As to conditions: Amaranthus retroflexus, pre-emergence, 312 h, evaluated after 13 days; for pest or weed control at 15.625 g/ha: 15.625 g ai/ha; for pest or weed control at 15.625 g/ha / pest or weed control at 250 g/ha: read-out: Pigweed, Redroot damage rating (100=total damage to plant; 0=no damage to plant); for pest or weed control at 62.5 g/ha: 62.5 g ai/ha, 100=total damage to plant, 0=no damage to plant, read-out: plant damage rating, Pigweed, Redroot; for pest or weed control at 250 g/ha: 250 g ai/ha. Here is the method: as §1, §2

Assay [5] relates to ivy-leaved morning glory (Ipomoea hederacea). To be noted: Ipomoea, pre-emergence, 312 h, evaluated after 13 days; for pest or weed control at 62.5 g/ha: 62.5 g ai/ha, 100=total damage to plant, 0=no damage to plant, read-out: plant damage rating, Morningglory, Ivy-leaved; for pest or weed control at 250 g/ha: 250 g ai/ha, read-out: Morningglory, Ivy-leaved damage rating (100=total damage to plant; 0=no damage to plant); for pest or weed control at 15.625 g/ha: 15.625 g ai/ha, read-out: Morning-glory, Ivy-leaved damage rating (100=total damage to plant; 0=no damage to plant). Here is the method: as §1, §2

On to `CN1C[C@@H](c2ccc(C(F)(F)F)cc2)[C@H](C(=O)Nc2cnccc2C(F)(F)F)C1=O` (racemic) [Compound 1401], for which, in assay [1], the pest or weed control at 15.625 g/ha came out at 40%, the pest or weed control at 62.5 g/ha amounted to 70% and the pest or weed control at 250 g/ha is 90%. Further, in assay [2], the pest or weed control at 15.625 g/ha was 20%, the pest or weed control at 62.5 g/ha is 30% and the pest or weed control at 250 g/ha worked out at 80%. Further, in the assay with corn (Zea mays), the plant injury at 15.625 g/ha amounted to 0%, the plant injury at 62.5 g/ha was found to be 10% and the plant injury at 250 g/ha came to 20%. In assay [3], the pest or weed control at 15.625 g/ha stood at 0%, the pest or weed control at 62.5 g/ha turned out to be 30% and the pest or weed control at 250 g/ha worked out at 70%. Further, in assay [4], the pest or weed control at 15.625 g/ha stood at 0%, the pest or weed control at 62.5 g/ha was 40% and the pest or weed control at 250 g/ha amounted to 90%. Further, in assay [5], the pest or weed control at 62.5 g/ha stood at 0% and the pest or weed control at 250 g/ha came out at 20%.
Take `CN1C[C@H](c2cccc(C(C)(C)C#N)c2)[C@@H](C(=O)Nc2cccc(F)c2F)C1=O` (racemic) [Compound 1497]: in assay [1], the pest or weed control at 15.625 g/ha amounted to 0%, the pest or weed control at 62.5 g/ha is 60% and the pest or weed control at 250 g/ha was determined as 80%. Besides, in assay [2], the pest or weed control at 15.625 g/ha worked out at 0%, the pest or weed control at 62.5 g/ha was 30% and the pest or weed control at 250 g/ha was 80%. Also, in the assay on corn (Zea mays), the plant injury at 15.625 g/ha was 0%, the plant injury at 62.5 g/ha was found to be 0% and the plant injury at 250 g/ha was 10%. In assay [3], the pest or weed control at 15.625 g/ha is 0%, the pest or weed control at 62.5 g/ha is 0% and the pest or weed control at 250 g/ha turned out to be 0%. Also, in assay [4], the pest or weed control at 15.625 g/ha worked out at 0%, the pest or weed control at 62.5 g/ha was found to be 0% and the pest or weed control at 250 g/ha was 0%. Also, in assay [5], the pest or weed control at 15.625 g/ha was found to be 0%, the pest or weed control at 62.5 g/ha was 0% and the pest or weed control at 250 g/ha came out at 20%.
On to `CN1C[C@@H](c2ccc(C(F)(F)F)cc2)[C@H](C(=O)Nc2ccnc(Cl)c2Cl)C1=O` (racemic) [Compound 1503], for which, in assay [1], the pest or weed control at 15.625 g/ha is 0%, the pest or weed control at 62.5 g/ha came to 0% and the pest or weed control at 250 g/ha was found to be 30%. In addition, in assay [2], the pest or weed control at 15.625 g/ha is 0%, the pest or weed control at 62.5 g/ha stood at 0% and the pest or weed control at 250 g/ha was determined as 20%. Besides, in the assay with corn (Zea mays), the plant injury at 15.625 g/ha worked out at 0%, the plant injury at 62.5 g/ha worked out at 0% and the plant injury at 250 g/ha came out at 0%. In addition, in assay [3], the pest or weed control at 15.625 g/ha amounted to 0%, the pest or weed control at 62.5 g/ha was determined as 0% and the pest or weed control at 250 g/ha is 0%. For the same compound, in assay [4], the pest or weed control at 15.625 g/ha was found to be 0% and the pest or weed control at 250 g/ha was 0%. Moreover, in assay [5], the pest or weed control at 62.5 g/ha came to 0% and the pest or weed control at 250 g/ha was found to be 0%.
`CN1C[C@@H](c2ccc(C(F)(F)F)cc2)[C@H](C(=O)Nc2ncc(C(F)(F)F)s2)C1=O` (racemic) [Compound 1504]: in assay [1], the pest or weed control at 15.625 g/ha came out at 0%, the pest or weed control at 62.5 g/ha came to 0% and the pest or weed control at 250 g/ha amounted to 0%. For the same compound, in assay [2], the pest or weed control at 15.625 g/ha is 0%, the pest or weed control at 62.5 g/ha turned out to be 0% and the pest or weed control at 250 g/ha is 0%. In the assay with corn (Zea mays), the plant injury at 15.625 g/ha worked out at 0%, the plant injury at 62.5 g/ha was found to be 0% and the plant injury at 250 g/ha came out at 0%. Besides, in assay [3], the pest or weed control at 15.625 g/ha was 0%, the pest or weed control at 62.5 g/ha came out at 0% and the pest or weed control at 250 g/ha was 0%. For the same compound, in assay [4], the pest or weed control at 15.625 g/ha is 0%, the pest or weed control at 62.5 g/ha amounted to 0% and the pest or weed control at 250 g/ha came to 0%. In addition, in assay [5], the pest or weed control at 15.625 g/ha stood at 0%, the pest or weed control at 62.5 g/ha worked out at 0% and the pest or weed control at 250 g/ha is 0%.
